# Results taken from patent US8415375B2, “2-hydroxyethyl-1H-quinolin-2-one derivatives and their azaisosteric analogues with antibacterial activity” (Actelion Pharmaceuticals Ltd., priority 2009, dated 2013).
# Key:
# Format in all cases: cell-based
# [1] = system: S. aureus 29213; experiment: Bacterial growth minimal inhibitory concentration (microdilution, cation-adjusted Mueller-Hinton Broth); details: Staphylococcus aureus
# Experimental: Minimal inhibitory concentrations (MICs; mg/l) were determined in cation-adjusted Mueller-Hinton Broth by a microdilution method following the description given in “Methods for Dilution Antimicrobial Susceptibility Tests for Bacteria that Grow Aerobically”, Approved standard, 7th ed., Clinical and Laboratory Standards Institute (CLSI) Document M7-A7, Wayne, Pa., USA, 2006. All Example compounds were tested against several Gram positive and Gram negative bacteria. Typical antibacterial test results are given in Table 1 hereafter (MIC in mg/l).
# [2] = molecular target: T1, hERG K+ channel (Homo sapiens, UniProt Q12809); experiment: In vitro blocking of hERG K+ channels (QPatch automated patch-clamp, CHO-K1 cells); details: pH 7.4, at 10 μM, recombinant hERG in CHO-K1 cells, average block on two cells
# T1 construct: host or cells: CHO-K1 (CHOhERG)
# T1 sequence (Q12809 whole entry): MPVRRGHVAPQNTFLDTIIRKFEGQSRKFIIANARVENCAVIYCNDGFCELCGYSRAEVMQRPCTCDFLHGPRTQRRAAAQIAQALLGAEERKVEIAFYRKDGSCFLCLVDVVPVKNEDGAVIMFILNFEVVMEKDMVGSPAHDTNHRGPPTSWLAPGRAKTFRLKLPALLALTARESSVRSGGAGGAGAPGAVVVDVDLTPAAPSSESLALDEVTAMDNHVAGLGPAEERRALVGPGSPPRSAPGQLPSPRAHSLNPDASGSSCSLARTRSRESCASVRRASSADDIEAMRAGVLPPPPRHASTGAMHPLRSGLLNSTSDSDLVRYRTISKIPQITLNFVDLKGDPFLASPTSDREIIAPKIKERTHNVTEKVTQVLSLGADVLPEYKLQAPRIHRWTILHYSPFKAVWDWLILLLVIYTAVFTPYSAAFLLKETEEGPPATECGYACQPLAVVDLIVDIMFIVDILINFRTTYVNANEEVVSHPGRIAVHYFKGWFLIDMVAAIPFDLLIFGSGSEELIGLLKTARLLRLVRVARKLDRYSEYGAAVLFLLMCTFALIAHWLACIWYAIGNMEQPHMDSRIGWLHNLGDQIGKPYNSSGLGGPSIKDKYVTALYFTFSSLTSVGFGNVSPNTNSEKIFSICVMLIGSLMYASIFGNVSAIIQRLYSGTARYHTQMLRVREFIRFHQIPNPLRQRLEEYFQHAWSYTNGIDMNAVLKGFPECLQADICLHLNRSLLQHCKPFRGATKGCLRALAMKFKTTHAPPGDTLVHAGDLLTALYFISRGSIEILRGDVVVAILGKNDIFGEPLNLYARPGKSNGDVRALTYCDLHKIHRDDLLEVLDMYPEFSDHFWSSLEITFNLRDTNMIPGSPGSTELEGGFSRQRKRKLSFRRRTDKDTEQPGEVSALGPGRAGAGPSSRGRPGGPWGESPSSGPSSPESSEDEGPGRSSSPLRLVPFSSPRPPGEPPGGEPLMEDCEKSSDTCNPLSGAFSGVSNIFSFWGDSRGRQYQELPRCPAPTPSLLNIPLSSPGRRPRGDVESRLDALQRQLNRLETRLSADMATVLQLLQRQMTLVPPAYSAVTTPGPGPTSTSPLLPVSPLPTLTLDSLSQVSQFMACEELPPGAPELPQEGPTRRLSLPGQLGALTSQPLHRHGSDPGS
# Experimental: hERG K^+ channels have been cloned from human heart and recombinant channels are stably expressed in CHO-K1 cells (CHOhERG). These cells have been purchased from bSys GmbH(CH-4052 Basel, Switzerland) and are grown in 150 mL culture flasks at 37° C. in 5% CO2. When the cells are ˜100% confluent, they are detached with 0.25% trypsin-EDTA solution and placed in the cell preparation unit of a QPatch automated patch-clamp robot (Sophion Bioscience A/S, 2750 Ballerup, Denmark).
# Currents through the hERG K^+ channels (IKhERG) are elicited using the following buffer solutions and voltage protocol: • extracellular solution (in mM): [NaCl]=150; [KCl]=4; [CaCl2]=1.2; [MgCl2]=1; [HEPES]=10; pH adjusted to 7.4 with NaOH; • intracellular solution (in mM): [KCl]=140; [NaCl]=10; [MgCl2]=1; [HEPES]=10; [EGTA]=5; [Mg-ATP]=5; [Na3-GTP]=0.1; pH adjusted to 7.2 with KOH; • voltage protocol: the resting potential is −80 mV and the frequency of stimulation is 0.1 Hz. hERG K^+ currents are measured as the average current during the last 20 ms of the 500 ms pulse to −40 mV minus the average current during the last 20 ms of the 50 ms pulse to −40 mV.
# After the cells have stabilized for a few minutes and the currents are steady, the amplitude of IKhERG is recorded under control conditions. Thereafter, the QPatch robot applies the test compound to the cell at the test concentration and, after 4 minutes of stimulation, the amplitude of IKhERG is recorded under test conditions. The ratio of the two amplitudes is used to define a fractional block and the average block on two cells is used to provide the effect of a given concentration (e.g. 10 μM). If, for a given test compound, a sufficient number of concentrations were tested, an apparent IC50 for inhibition of IKhERG is calculated.
# [3] = system: S. aureus A798; experiment: Bacterial growth minimal inhibitory concentration (microdilution), S. aureus A798; details: Staphylococcus aureus
# Experimental: Minimal inhibitory concentrations (MICs; mg/l) were determined in cation-adjusted Mueller-Hinton Broth by a microdilution method following the description given in “Methods for Dilution Antimicrobial Susceptibility Tests for Bacteria that Grow Aerobically”, Approved standard, 7th ed., Clinical and Laboratory Standards Institute (CLSI) Document M7-A7, Wayne, Pa., USA, 2006.
# [drawing 16] using the experimentals methods described above for the MIC regarding S. aureus A798 bacteria and for in vitro blocking hERG K^+ channels gave the results summarised in the Table 2 hereafter.
MIC [1] [µg/mL],MIC [3] [µg/mL],SMILES,"inhibition at 4 min, 10 µM [2] [%]"
≤ 0.031,–,"COc1ccc2ccc(=O)n(C[C@H](O)[C@@H]3CC[C@@H](NCc4cc5c(cn4)OCCS5)CO3)c2n1 [Example 1, 1-((S)-2-{(2S,5R)-5-[(2,3-dihydro-4-oxa-1-thia-6-aza-naphthalen-7-ylmethyl)-amino]-tetrahydro-pyran-2-yl}-2-hydroxy-ethyl)-7-methoxy-1H-[1,8]naphthyridin-2-one]",32
≤ 0.031,≤ 0.063,"COc1ccc2ccc(=O)n(C[C@H](O)[C@@H]3CC[C@@H](NCc4cc5c(cn4)OCCO5)CO3)c2n1 [Example 2, 1-((2S)-2-{(2S,5R)-5-[(2,3-dihydro-[1,4]dioxino[2,3-c]pyridin-7-ylmethyl)-amino]-tetrahydro-pyran-2-yl}-2-hydroxy-ethyl)-7-methoxy-1H-[1,8]naphthyridin-2-one]",18
≤ 0.031,≤ 0.063,"COc1ccc2ncc(=O)n(C[C@H](O)[C@@H]3CC[C@@H](NCc4cc5c(cn4)OCCO5)CO3)c2c1 [Example 3, 1-((2S)-2-{(2S,5R)-5-[(2,3-dihydro-[1,4]dioxino[2,3-c]pyridin-7-ylmethyl)-amino]tetrahydro-pyran-2-yl}-2-hydroxy-ethyl)-7-methoxy-1H-quinoxalin-2-one]",18
≤ 0.031,≤ 0.063,"COc1ccc2ncc(=O)n(C[C@H](O)[C@@H]3CC[C@@H](NCc4cc5c(cn4)OCCO5)CO3)c2n1 [Example 4, 4-((2S)-2-{(2S,5R)-5-[(2,3-dihydro-[1,4]dioxino[2,3-c]pyridin-7-ylmethyl)-amino]tetrahydro-pyran-2-yl}-2-hydroxy-ethyl)-6-methoxy-4H-pyrido[2,3-b]pyrazin-3-one]",7
0.063,–,"COc1ccc2ccc(=O)n(C[C@H](O)[C@@H]3CC[C@@H](NCc4cc5c(nn4)OCCO5)CO3)c2n1 [Example 5, 1-((2S)-2-{(2S,5R)-5-[(6,7-dihydro-[1,4]dioxino[2,3-c]pyridazin-3-ylmethyl)-amino]tetrahydro-pyran-2-yl}-2-hydroxy-ethyl)-7-methoxy-1H-[1,8]naphthyridin-2-one]",28
≤ 0.031,≤ 0.063,"COc1ccc2ccc(=O)n(C[C@H](O)C3CCC(NCc4cc5c(cn4)OCCO5)CC3)c2n1 (stereo partly drawn) [Example 6, 1-((2R)-2-{4-[(2,3-dihydro-[1,4]dioxino[2,3-c]pyridin-7-ylmethyl)-amino]cyclohexyl}-2-hydroxy-ethyl)-7-methoxy-1H-[1,8]naphthyridin-2-one]",35
≤ 0.031,0.125,"COc1ccc2ncc(=O)n(C[C@H](O)C3CCC(NCc4cc5c(cn4)OCCO5)CC3)c2c1 (stereo partly drawn) [Example 7, 1-((2R)-2-{4-[(2,3-dihydro-[1,4]dioxino[2,3-c]pyridin-7-ylmethyl)-amino]-cyclohexyl}-2-hydroxy-ethyl)-7-methoxy-1H-quinoxalin-2-one]",18
0.5,–,"COc1ccc2ccc(=O)n(C[C@H](O)[C@@H]3CC[C@@H](NCc4cc5c(nn4)OCCS5)CO3)c2n1 [Example 8, 1-((2S)-2-{(2S,5R)-5-[(6,7-dihydro-8-oxa-5-thia-1,2-diaza-naphthalen-3-ylmethyl)-amino]-tetrahydro-pyran-2-yl}-2-hydroxy-ethyl)-7-methoxy-1H-[1,8]naphthyridin-2-one]",6
≤ 0.031,–,"COc1ccc2ccc(=O)n(C[C@H](O)[C@@H]3CC[C@@H](NCc4cc5c(cn4)OCS5)CO3)c2n1 [Example 9, 1-((2S)-2-hydroxy-2-{(2S,5R)-5-[(3-oxa-1-thia-5-aza-indan-6-ylmethyl)-amino]-tetrahydro-pyran-2-yl}-ethyl)-7-methoxy-1H-[1,8]naphthyridin-2-one]",52
≤ 0.031,–,"COc1ccc2cc(F)c(=O)n(C[C@H](O)[C@@H]3CC[C@@H](NCc4cc5c(cn4)OCS5)CO3)c2n1 [Example 10, 3-fluoro-1-((2S)-2-hydroxy-2-{(2S,5R)-5-[(3-oxa-1-thia-5-aza-indan-6-ylmethyl)-amino]-tetrahydro-pyran-2-yl}-ethyl)-7-methoxy-1H-[1,8]naphthyridin-2-one]",48
≤ 0.031,–,"COc1ccc2ncc(=O)n(C[C@H](O)[C@@H]3CC[C@@H](NCc4cc5c(cn4)OCCS5)CO3)c2n1 [Example 11, 4-((2S)-2-{(2S,5R)-5-[(2,3-dihydro-4-oxa-1-thia-6-aza-naphthalen-7-ylmethyl)-amino]-tetrahydro-pyran-2-yl}-2-hydroxy-ethyl)-6-methoxy-4H-pyrido[2,3-b]pyrazin-3-one]",45
0.063,–,"COc1ccc2ncc(=O)n(C[C@H](O)[C@@H]3CC[C@@H](NCc4cc5c(nn4)OCCS5)CO3)c2n1 [Example 12, 4-((2S)-2-{(2S,5R)-5-[(6,7-dihydro-8-oxa-5-thia-1,2-diaza-naphthalen-3-ylmethyl)-amino]-tetrahydro-pyran-2-yl}-2-hydroxy-ethyl)-6-methoxy-4H-pyrido[2,3-b]pyrazin-3-one]",7
0.125,–,"COc1cnc2ccc(=O)n(C[C@H](O)[C@@H]3CC[C@@H](NCc4cc5c(cn4)OCCO5)CO3)c2n1 [Example 13, 5-((2S)-2-{(2S,5R)-5-[(2,3-dihydro-[1,4]dioxino[2,3-c]pyridin-7-ylmethyl)-amino]-tetrahydro-pyran-2-yl}-2-hydroxy-ethyl)-3-methoxy-5H-pyrido[2,3-b]pyrazin-6-one]",5
≤ 0.031,–,"COc1cnc2ccc(=O)n(C[C@H](O)[C@@H]3CC[C@@H](NCc4cc5c(cn4)OCCS5)CO3)c2n1 [Example 14, 5-((2S)-2-{(2S,5R)-5-[(2,3-dihydro-4-oxa-1-thia-6-aza-naphthalen-7-ylmethyl)-amino]-tetrahydro-pyran-2-yl}-2-hydroxy-ethyl)-3-methoxy-5H-pyrido[2,3-b]pyrazin-6-one]",–
0.25,–,"COc1cnc2ccc(=O)n(C[C@H](O)[C@@H]3CC[C@@H](NCc4cc5c(nn4)OCCS5)CO3)c2n1 [Example 15, 5-((S)-2-{(2S,5R)-5-[(6,7-dihydro-8-oxa-5-thia-1,2-diaza-naphthalen-3-ylmethyl)-amino]-tetrahydro-pyran-2-yl}-2-hydroxy-ethyl)-3-methoxy-5H-pyrido[2,3-b]pyrazin-6-one]",0
